Test results from ChEMBL document CHEMBL6096702, “Discovery of a Novel p38α-MK2 Complex Inhibitor as a Potential Choice for Autoimmune Diseases” (J Med Chem, 2025).

How the values were obtained:
[1] = Inhibition of LPS-induced IL-1beta production in human PBMC cells preincubated with compound for 1 hrs followed by LPS addition and measured after 4 hrs; type: functional, cell-based
[2] = Volume of distribution at steady state in male Sprague-Dawley rat at 1 mg/kg, iv measured after 24 hrs by LC-MS/MS analysis; type: ADME, organism-based; details: in vivo, read-out: Vdss
[3] = Half-life in male Sprague-Dawley rat at 1 mg/kg, iv measured after 24 hrs by LC-MS/MS analysis; type: ADME, organism-based; details: in vivo
[4] = Oral bioavailability in male Sprague-Dawley rat at 2 mg/kg measured after 24 hrs by LC-MS/MS analysis; type: ADME, organism-based; details: in vivo
[5] = Clearance in male Sprague-Dawley rat at 1 mg/kg, iv measured after 24 hrs by LC-MS/MS analysis; type: ADME, organism-based; details: in vivo
[6] = MRT in male Sprague-Dawley rat at 1 mg/kg, iv measured after 24 hrs by LC-MS/MS analysis; type: ADME, organism-based; details: in vivo
[7] = Cmax in male Sprague-Dawley rat at 2 mg/kg, po measured after 24 hrs by LC-MS/MS analysis; type: ADME, organism-based; details: in vivo
[8] = Inhibition of LPS-induced TNF-alpha production in human PBMC cells preincubated with compound for 1 hrs followed by LPS addition and measured after 4 hrs; type: functional, cell-based
[9] = Inhibition of N-terminal GST-tagged wildtype human P38alpha (4 to 152 residues) extracted from Escherichia coli/GST-tagged PRAK (unknown origin) assessed as reduction in HSP27 phosphorylation incubated for 2 hrs in presence of ATP and HSP27-FITC peptide by fluorescence polarization based IMAP assay
[10] = AUClast in male Sprague-Dawley rat at 2 mg/kg, po measured after 24 hrs by LC-MS/MS analysis; type: ADME, organism-based; details: in vivo
[11] = Selectivity ratio of IC50 for inhibition of N-terminal GST-tagged wildtype human P38alpha (4 to 152 residues) extracted from Escherichia coli/GST-tagged PRAK (unknown origin) to IC50 for inhibition of N-terminal GST-tagged wildtype human P38alpha (4 to 152 residues) extracted from Escherichia coli/GST-tagged MK2 (unknown origin)
[12] = AUClast in male Sprague-Dawley rat at 1 mg/kg, iv measured after 24 hrs by LC-MS/MS analysis; type: ADME, organism-based; details: in vivo

- IC50 [1]: 0.02 nM
- Vd [2]: 1.1 L/kg
- half-life [3]: 0.9 h
- bioavailability [4]: 40%
- clearance [5]: 16.3 mL/min/kg
- MRT [6]: 1.2 h
- Cmax [7]: 283 ng/mL
- IC50 [8]: < 0.1 nM
- IC50 [9]: 1 nM
- AUC(0-t) at 24 h [10]: 861 ng·h/mL
- Ratio IC50 [11]: 125
- AUC(0-t) at 24 h [12]: 1080 ng·h/mL
SMILES: Cc1cnc(-c2cccc(C(C)(C)O)c2F)c(F)c1-n1c(C)cc(OCc2ncc(F)cc2F)c(Cl)c1=O
